In patent US9937151B2, “Carbapenem antibacterials with gram-negative activity” (priority 2010, dated 2018):
In brackets after ≈: the same amount, converted by molar mass.

Tested on: G(−) bacterial strains
Experiment: Dilution antimicrobial susceptibility tests (MIC, NCCLS agar dilution / broth dilution)
Type: cell-based, Gram-negative organisms
Details: unit assumed
Summary of the method: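 Agar dilution on Mueller-Hinton agar at 10^4 CFU/spot and broth dilution at 5×10^5 CFU/well, per NCCLS M7-A5. Streptococci tested on Mueller-Hinton agar with 5% sheep blood. MIC taken as minimum inhibitory concentration; ATCC control strains run alongside.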

[1] = strain #1 Acinetobacter calcoaceticus
[2] = strain #2 Acinetobacter baumannii, Cf-R, Ci-R
[3] = strain #3 Acinetobacter baumannii, Cf-R, Ci-R, Mp-I
[4] = strain #4 Acinetobacter baumannii, Cf-R, Imp-I, CBPase
[5] = strain #7 Enterobacter aerogenes
[6] = strain #8 Enterobacter cloacae, Cf-R, B+
[7] = strain #9 Enterobacter cloacae, Cf-R
[8] = strain #10 Escherichia coli, Ci-R
[9] = strain #11 Escherichia coli, Ci-R, AmpC
[10] = strain #15 Klebsiella pneumoniae
[11] = strain #16 Moraxella catarrhalis
[12] = strain #21 Providencia rettgeri
[13] = strain #22 Salmonella typhimurium
[14] = strain #25 Shigella dysenteriae
[15] = strain #28 Stenotrophomonas maltophilia
[16] = strain #29 Pseudomonas aeruginosa
[17] = strain #30 Pseudomonas aeruginosa
[18] = strain #31 Pseudomonas aeruginosa, Ofx-R
[19] = strain #32 Pseudomonas aeruginosa, Cf-R
[20] = strain #33 Pseudomonas aeruginosa, Ci-R
[21] = strain #34 Pseudomonas aeruginosa, Gen-R
[22] = strain #35 Pseudomonas aeruginosa, Ip-R
[23] = strain #36 Pseudomonas aeruginosa, Cf-R, Ci-R, Mp-R

Row | Structure (SMILES) | MIC [1] | MIC [2] | MIC [3] | MIC [4] | MIC (strain #5 Citrobacter diversus) | MIC (strain #6 Citrobacter freundii) | MIC [5] | MIC [6] | MIC [7] | MIC [8] | MIC [9] | MIC (strain #12 Escherichia coli) | MIC (strain #13 Escherichia coli) | MIC (strain #14 Klebsiella oxytoca) | MIC [10] | MIC [11] | MIC (strain #17 Morganella Morganii) | MIC (strain #18 Morganella Morganii) | MIC (strain #19 Proteus vulgaris) | MIC (strain #20 Proteus mirabilis) | further results
1 | C[C@@H](O)C1C(=O)N2C(C(=O)O)=C(CN3CC[C@H](NC(=N)NS(C)(=O)=O)C3)[C@H](C)C12 (stereo partly shown) [Compound 106] | 4 µg/mL (≈ 9.31 µM) | 2 µg/mL (≈ 4.66 µM) | 8 µg/mL (≈ 18.6 µM) | 2 µg/mL (≈ 4.66 µM) | 1 µg/mL (≈ 2.33 µM) | 1 µg/mL (≈ 2.33 µM) | 2 µg/mL (≈ 4.66 µM) | 1 µg/mL (≈ 2.33 µM) | 2 µg/mL (≈ 4.66 µM) | 1 µg/mL (≈ 2.33 µM) | 0.5 µg/mL (≈ 1.16 µM) | 1 µg/mL (≈ 2.33 µM) | 1 µg/mL (≈ 2.33 µM) | 2 µg/mL (≈ 4.66 µM) | 1 µg/mL (≈ 2.33 µM) | ≤ 0.008 µg/mL | 4 µg/mL (≈ 9.31 µM) | 4 µg/mL (≈ 9.31 µM) | 2 µg/mL (≈ 4.66 µM) | 1 µg/mL (≈ 2.33 µM) | MIC [12]: 4 µg/mL (≈ 9.31 µM); MIC [13]: 1 µg/mL (≈ 2.33 µM); MIC (strain #23 Serratia marcescens): 2 µg/mL (≈ 4.66 µM); MIC (strain #24 Serratia marcescens): 2 µg/mL (≈ 4.66 µM); MIC [14]: 1 µg/mL (≈ 2.33 µM); MIC (strain #26 Shigella sonnei): 1 µg/mL (≈ 2.33 µM); MIC (strain #27 Shigella flexneri): 0.5 µg/mL (≈ 1.16 µM); MIC [15]: 1 µg/mL (≈ 2.33 µM); MIC [16]: 8 µg/mL (≈ 18.6 µM); MIC [17]: 8 µg/mL (≈ 18.6 µM); MIC [18]: 4 µg/mL (≈ 9.31 µM); MIC [19]: 8 µg/mL (≈ 18.6 µM); MIC [20]: 8 µg/mL (≈ 18.6 µM); MIC [21]: 8 µg/mL (≈ 18.6 µM); MIC [22]: 16 µg/mL (≈ 37.3 µM); MIC [23]: > 32 µg/mL
2 | C[C@@H](O)[C@H]1C(=O)N2C(C(=O)O)=C(CN3CC(O)C(NC(=N)N)C3)[C@H](C)[C@H]12 (mixture of isomers) [Compound 176] | 0.13 µg/mL | 0.5 µg/mL | 1 µg/mL | 1 µg/mL | 0.063 µg/mL | 0.13 µg/mL | 0.25 µg/mL | 0.063 µg/mL | 0.13 µg/mL | 0.063 µg/mL | 0.063 µg/mL | 0.063 µg/mL | 0.13 µg/mL | 0.13 µg/mL | 0.13 µg/mL | ≤ 0.008 µg/mL | 1 µg/mL | 0.5 µg/mL | 0.25 µg/mL | 0.063 µg/mL | MIC [12]: 0.25 µg/mL; MIC [13]: 0.13 µg/mL; MIC (strain #23 Serratia marcescens): 0.25 µg/mL; MIC (strain #24 Serratia marcescens): 0.25 µg/mL; MIC [14]: 0.13 µg/mL; MIC (strain #26 Shigella sonnei): 0.063 µg/mL; MIC (strain #27 Shigella flexneri): 0.063 µg/mL; MIC [15]: 0.063 µg/mL; MIC [16]: 1 µg/mL; MIC [17]: 1 µg/mL; MIC [18]: 0.5 µg/mL; MIC [19]: 1 µg/mL; MIC [20]: 1 µg/mL; MIC [21]: 1 µg/mL; MIC [22]: 2 µg/mL; MIC [23]: 8 µg/mL
3 | C[C@@H](O)C1C(=O)N2C(C(=O)O)=C(CN3CC[C@H](NC(=O)CNS(N)(=O)=O)C3)[C@H](C)C12 (stereo partly shown) [Compound 163] | 2 µg/mL (≈ 4.49 µM) | 4 µg/mL (≈ 8.98 µM) | 8 µg/mL (≈ 18 µM) | 16 µg/mL (≈ 35.9 µM) | 0.5 µg/mL (≈ 1.12 µM) | 1 µg/mL (≈ 2.24 µM) | 2 µg/mL (≈ 4.49 µM) | 0.5 µg/mL (≈ 1.12 µM) | 1 µg/mL (≈ 2.24 µM) | 0.5 µg/mL (≈ 1.12 µM) | 0.5 µg/mL (≈ 1.12 µM) | 0.5 µg/mL (≈ 1.12 µM) | 0.5 µg/mL (≈ 1.12 µM) | 1 µg/mL (≈ 2.24 µM) | 1 µg/mL (≈ 2.24 µM) | ≤ 0.008 µg/mL | 8 µg/mL (≈ 18 µM) | 8 µg/mL (≈ 18 µM) | 4 µg/mL (≈ 8.98 µM) | 0.5 µg/mL (≈ 1.12 µM) | MIC [12]: 1 µg/mL (≈ 2.24 µM); MIC [13]: 0.5 µg/mL (≈ 1.12 µM); MIC (strain #23 Serratia marcescens): 2 µg/mL (≈ 4.49 µM); MIC (strain #24 Serratia marcescens): 2 µg/mL (≈ 4.49 µM); MIC [14]: 1 µg/mL (≈ 2.24 µM); MIC (strain #26 Shigella sonnei): 0.5 µg/mL (≈ 1.12 µM); MIC (strain #27 Shigella flexneri): 0.5 µg/mL (≈ 1.12 µM); MIC [15]: 1 µg/mL (≈ 2.24 µM)
4 | C[C@@H](O)C1C(=O)N2C(C(=O)O)=C(CN3CC[C@H](NC(=N)N)C3)[C@H](C)C12 (stereo partly shown) [Compound 64] | 0.13 µg/mL (≈ 0.37 µM) | 1 µg/mL (≈ 2.85 µM) | 1 µg/mL (≈ 2.85 µM) | 0.5 µg/mL (≈ 1.42 µM) | 0.5 µg/mL (≈ 1.42 µM) | 0.5 µg/mL (≈ 1.42 µM) | 1 µg/mL (≈ 2.85 µM) | 0.5 µg/mL (≈ 1.42 µM) | 0.5 µg/mL (≈ 1.42 µM) | 0.25 µg/mL (≈ 0.711 µM) | 0.25 µg/mL (≈ 0.711 µM) | 0.5 µg/mL (≈ 1.42 µM) | 0.5 µg/mL (≈ 1.42 µM) | 1 µg/mL (≈ 2.85 µM) | 1 µg/mL (≈ 2.85 µM) | ≤ 0.008 µg/mL | 4 µg/mL (≈ 11.4 µM) | 2 µg/mL (≈ 5.69 µM) | 1 µg/mL (≈ 2.85 µM) | 0.5 µg/mL (≈ 1.42 µM) | MIC [12]: 2 µg/mL (≈ 5.69 µM); MIC [13]: 0.5 µg/mL (≈ 1.42 µM); MIC (strain #23 Serratia marcescens): 1 µg/mL (≈ 2.85 µM); MIC (strain #24 Serratia marcescens): 2 µg/mL (≈ 5.69 µM); MIC [14]: 0.5 µg/mL (≈ 1.42 µM); MIC (strain #26 Shigella sonnei): 0.5 µg/mL (≈ 1.42 µM); MIC (strain #27 Shigella flexneri): 0.25 µg/mL (≈ 0.711 µM); MIC [15]: 0.25 µg/mL (≈ 0.711 µM); MIC [16]: 1 µg/mL (≈ 2.85 µM); MIC [17]: 1 µg/mL (≈ 2.85 µM); MIC [18]: 0.25 µg/mL (≈ 0.711 µM); MIC [19]: 2 µg/mL (≈ 5.69 µM); MIC [20]: 2 µg/mL (≈ 5.69 µM); MIC [21]: 2 µg/mL (≈ 5.69 µM); MIC [22]: 2 µg/mL (≈ 5.69 µM); MIC [23]: 16 µg/mL (≈ 45.5 µM)
5 | C[C@@H](O)C1C(=O)N2C(C(=O)O)=C(CN3CC[C@H](NC(N)=O)C3)[C@H](C)C12 (stereo partly shown) [Compound 78] | 2 µg/mL (≈ 5.68 µM) | 2 µg/mL (≈ 5.68 µM) | 4 µg/mL (≈ 11.4 µM) | 4 µg/mL (≈ 11.4 µM) | 0.5 µg/mL (≈ 1.42 µM) | 0.5 µg/mL (≈ 1.42 µM) | 2 µg/mL (≈ 5.68 µM) | 0.5 µg/mL (≈ 1.42 µM) | 1 µg/mL (≈ 2.84 µM) | 0.5 µg/mL (≈ 1.42 µM) | 0.5 µg/mL (≈ 1.42 µM) | 0.5 µg/mL (≈ 1.42 µM) | 1 µg/mL (≈ 2.84 µM) | 1 µg/mL (≈ 2.84 µM) | 1 µg/mL (≈ 2.84 µM) | 0.016 µg/mL (≈ 0.0454 µM) | 8 µg/mL (≈ 22.7 µM) | 4 µg/mL (≈ 11.4 µM) | 4 µg/mL (≈ 11.4 µM) | 1 µg/mL (≈ 2.84 µM) | MIC [12]: 4 µg/mL (≈ 11.4 µM); MIC [13]: 1 µg/mL (≈ 2.84 µM); MIC (strain #23 Serratia marcescens): 2 µg/mL (≈ 5.68 µM); MIC (strain #24 Serratia marcescens): 2 µg/mL (≈ 5.68 µM); MIC [14]: 1 µg/mL (≈ 2.84 µM); MIC (strain #26 Shigella sonnei): 1 µg/mL (≈ 2.84 µM); MIC (strain #27 Shigella flexneri): 0.5 µg/mL (≈ 1.42 µM); MIC [15]: 1 µg/mL (≈ 2.84 µM); MIC [16]: 8 µg/mL (≈ 22.7 µM); MIC [17]: 8 µg/mL (≈ 22.7 µM); MIC [18]: 2 µg/mL (≈ 5.68 µM); MIC [19]: 16 µg/mL (≈ 45.4 µM); MIC [20]: 16 µg/mL (≈ 45.4 µM); MIC [21]: 16 µg/mL (≈ 45.4 µM); MIC [22]: 16 µg/mL (≈ 45.4 µM); MIC [23]: > 32 µg/mL
